For the assay, the target named is T1, human 4lg B7-H3 (Homo sapiens, UniProt Q5ZPR3).
T1 sequence (Q5ZPR3 29-534): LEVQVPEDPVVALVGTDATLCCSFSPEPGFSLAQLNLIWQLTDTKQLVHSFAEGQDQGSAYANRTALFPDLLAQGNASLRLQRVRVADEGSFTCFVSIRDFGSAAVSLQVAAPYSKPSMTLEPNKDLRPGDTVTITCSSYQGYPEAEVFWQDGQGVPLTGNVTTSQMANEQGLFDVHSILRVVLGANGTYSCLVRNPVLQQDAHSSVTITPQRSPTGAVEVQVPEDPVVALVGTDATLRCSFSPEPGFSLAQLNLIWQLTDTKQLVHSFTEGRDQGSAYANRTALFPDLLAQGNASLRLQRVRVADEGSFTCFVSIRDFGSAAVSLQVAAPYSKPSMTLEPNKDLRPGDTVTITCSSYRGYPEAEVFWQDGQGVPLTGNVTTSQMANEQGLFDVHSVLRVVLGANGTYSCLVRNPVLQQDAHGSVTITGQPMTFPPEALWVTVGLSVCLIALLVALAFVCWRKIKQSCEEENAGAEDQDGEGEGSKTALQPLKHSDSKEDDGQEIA
Nature of the assay: Affinity determination by surface plasmon resonance (SPR) to 4Ig B7-H3. To be noted: 4Ig B7-H3. (Surface plasmon resonance follows binding to a sensor surface in real time, without labels.)

Where [1] appears, read: SPR KD—25° C., 25° C. flow cell temperature.
[2] abbreviates: SPR KD—37° C., 37° C. flow cell temperature.

Starred links: 1 amine or outer side, 2 acyl side, 3 side chain; linkers in the order of their positions; H or OH if unused. Positions of bridges follow the written chain, without caps; N, C: chain ends. Non-standard residues stand in square brackets, D forms with d. Residues, ends and D or L forms follow the SMILES beside them. Groups on a side chain read outwards from the residue. *: point of attachment. Ala(1-CH2CO2H-4-piperidyl) = N[C@@H](CC1CCN(CC(=O)O)CC1)C(=O)O; Ala(piperidin-4-yl) = O=C([C@H](CC1CCN([*:3])CC1)N[*:1])[*:2]; DOTA = O=C(O)CN1CCN(CC(=O)O)CCN(CC(=O)*)CCN(CC(=O)O)CC1; Phe(4-COOH) = N[C@@H](Cc1ccc(C(=O)O)cc1)C(=O)O; Trp(5-F) = N[C@@H](Cc1c[nH]c2ccc(F)cc12)C(=O)O; X1 = C[C@@H](c1ccccc1)[C@H](N[*:1])C(=O)[*:2]; Trp(1-Me) = Cn1cc(C[C@H](N)C(=O)O)c2ccccc21; X17 = CN1CCC(C[C@H](N[*:1])C(=O)[*:2])CC1; Phe(3-Cl) = N[C@@H](Cc1cccc(Cl)c1)C(=O)O; 1Nal = N[C@@H](Cc1cccc2ccccc12)C(=O)O; Ala(4-THP) = N[C@@H](CC1CCOCC1)C(=O)O; Val(3-OH) = CC(C)(O)[C@H](N)C(=O)O; Chg = N[C@H](C(=O)O)C1CCCCC1; PEG4 = NCCOCCOCCOCCOCCC(=O)O; Tle = CC(C)(C)[C@H](N)C(=O)O; hLeu = CC(C)CC[C@H](N)C(=O)O; Nle = CCCC[C@H](N)C(=O)O; Dab = NCC[C@H](N)C(=O)O

The values that follow come from US20250296959A1, “B7-H3 TARGETING PEPTIDES AND CONSTRUCTS THEREOF” (Mariana Oncology Inc., priority 2024, published 2025).

As a reminder, the Kd is the concentration at which binding is half-saturated. A lower Kd goes with a tighter complex.

`CC(=O)N[C@@H](CCC(C)C)C(=O)N[C@@H](Cc1ccc(O)cc1)C(=O)N[C@H]1CSSC[C@@H](C(=O)N[C@@H](Cc2c[nH]c3ccc(F)cc23)C(=O)N[C@@H](Cc2ccccc2)C(=O)N[C@H](C(=O)N[C@H](CCCCNC(=O)CN2CCN(CC(=O)O)CCN(CC(=O)O)CCN(CC(=O)O)CC2)C(N)=O)[C@@H](C)O)NC(=O)[C@H](Cc2ccc(O)cc2)NC(=O)[C@H](C2CCCCC2)NC(=O)[C@H](CC(=O)O)NC(=O)[C@H](Cc2ccc(O)cc2)NC(=O)[C@H](CCCCN)NC(=O)CNC(=O)[C@H](C(C)(C)C)NC1=O` [compound 181, Ac-hLeu-Y-C-Tbg-G-K-Y-D-Chg-Y-C-5FW-F-Thr-dLys(DOTA)-CONH2] (Ac-[hLeu]YC[Tle]GKYD[Chg]YC[Trp(5-F)]FT[dK](DOTA)-NH2; disulfide 3-11) had a dissociation constant Kd under setting [1] of 1 to 10 nM.
For the compound `CC(=O)N[C@@H](CCC(C)C)C(=O)N[C@@H](Cc1ccc(O)cc1)C(=O)N[C@H]1CSSC[C@@H](C(=O)N[C@@H](Cc2c[nH]c3ccc(F)cc23)C(=O)N[C@@H](Cc2ccccc2)C(=O)N[C@H](C(=O)O)C(C)(C)O)NC(=O)[C@H](Cc2ccc(O)cc2)NC(=O)[C@H](C(C)C)NC(=O)[C@H](CC(=O)O)NC(=O)[C@H](CC2CCN(CC(=O)O)CC2)NC(=O)[C@H](CCCCNC(=O)CN2CCN(CC(=O)O)CCN(CC(=O)O)CCN(CC(=O)O)CC2)NC(=O)CNC(=O)[C@H](C(C)(C)C)NC1=O` [compound 343, Ac-hLeu-Y-C-Tbg-G-Lys(DOTA)-Pip(CH2COOH)Ala-D-V-Y-C-5FW-F-hydroxyVal-COOH] (Ac-[hLeu]YC[Tle]GK(DOTA)[Ala(1-CH2CO2H-4-piperidyl)]DVYC[Trp(5-F)]F[Val(3-OH)]-OH; disulfide 3-11), the Kd under setting [2] fell in the range of 10 to 100 nM.
As for `CCCC[C@H](NC(=O)[C@H](Cc1c[nH]c2ccc(F)cc12)NC(=O)[C@@H]1CSSC[C@H](NC(=O)[C@H](Cc2ccc(O)cc2)NC(=O)[C@H](CCC(C)C)NC(C)=O)C(=O)N[C@@H](C(C)(C)C)C(=O)NCC(=O)N[C@@H](CCCCN)C(=O)N[C@@H](CC2CCOCC2)C(=O)N[C@@H](CC(=O)O)C(=O)N[C@@H](C(C)C)C(=O)N[C@@H](Cc2ccc(O)cc2)C(=O)N1)C(=O)N[C@H](C(=O)N[C@H](CCCCNC(=O)CN1CCN(CC(=O)O)CCN(CC(=O)O)CCN(CC(=O)O)CC1)C(=O)O)[C@@H](C)O` [compound 333, Ac-hLeu-Y-C-Tbg-G-K-ThpA-D-V-Y-C-5FW-Nle-Thr-dLys(DOTA)-COOH] (Ac-[hLeu]YC[Tle]GK[Ala(4-THP)]DVYC[Trp(5-F)][Nle]T[dK](DOTA)-OH; disulfide 3-11), the Kd under setting [1] was 10 to 100 nM.
The same measure, in the same setting: the same measure for `CCCC[C@H](NC(C)=O)C(=O)N[C@@H](Cc1ccc(O)cc1)C(=O)N[C@H]1CSSC[C@@H](C(=O)N[C@@H](Cc2c[nH]c3ccccc23)C(=O)N[C@@H](Cc2ccccc2)C(=O)N[C@@H](CCN)C(=O)N[C@H](CCCCNC(=O)CN2CCN(CC(=O)O)CCN(CC(=O)O)CCN(CC(=O)O)CC2)C(N)=O)NC(=O)[C@H](Cc2ccc(O)cc2)NC(=O)[C@H](C(C)C)NC(=O)[C@H](CC(=O)O)NC(=O)[C@H](Cc2ccc(O)cc2)NC(=O)[C@H](CCCCN)NC(=O)CNC(=O)[C@H](C(C)C)NC1=O` [compound 131, Ac-Nle-Y-C-V-G-K-Y-D-V-Y-C-W-F-Dab-dLys(DOTA)-CONH2] (Ac-[Nle]YCVGKYDVYCWF[Dab][dK](DOTA)-NH2; disulfide 3-11): 10 to 100 nM.
Regarding `CC(=O)NCCCC[C@@H]1NC(=O)CNC(=O)[C@H](C(C)(C)C)NC(=O)[C@@H](NC(=O)[C@H](Cc2ccc(O)cc2)NC(=O)[C@H](CCC(C)C)NC(C)=O)CSSC[C@@H](C(=O)N[C@@H](Cc2c[nH]c3ccc(F)cc23)C(=O)N[C@H](C(=O)N[C@H](C(=O)N[C@H](C)C(=O)O)C(C)(C)O)[C@@H](C)c2ccccc2)NC(=O)[C@H](Cc2ccc(O)cc2)NC(=O)[C@H](C(C)C)NC(=O)[C@H](CC(=O)O)NC(=O)[C@H](CC2CCN(C(=O)CCOCCOCCOCCOCCNC(=O)CN3CCN(CC(=O)O)CCN(CC(=O)O)CCN(CC(=O)O)CC3)CC2)NC1=O` [compound 512, Ac-hLeu-Y-C-Tbg-G-Lys(Ac)-Pip(PEG4-DOTA)Ala-D-V-Y-C-5FW-[(2S, 3S)beta-Me-Phe]-hydroxyVal-dAla-COOH] (Ac-[hLeu]YC[Tle]GK(Ac)[Ala(piperidin-4-yl)]([PEG4-DOTA])DVYC[Trp(5-F)][X1][Val(3-OH)][dA]-OH; disulfide 3-11), the Kd under setting [2] was less than 1 nM.
Regarding `CC(=O)N[C@@H](CCC(C)C)C(=O)N[C@@H](Cc1ccc(O)cc1)C(=O)N[C@H]1CSSC[C@@H](C(=O)N[C@@H](Cc2c[nH]c3ccc(F)cc23)C(=O)N[C@@H](Cc2ccccc2)C(=O)N[C@H](C(=O)N[C@H](CCCCNC(=O)CN2CCN(CC(=O)O)CCN(CC(=O)O)CCN(CC(=O)O)CC2)C(=O)O)[C@@H](C)O)NC(=O)[C@H](Cc2ccc(O)cc2)NC(=O)[C@H](C(C)C)NC(=O)[C@H](CC(=O)O)NC(=O)[C@H](CC2CCOCC2)NC(=O)[C@H](CCCCN)NC(=O)CNC(=O)[C@H](C(C)C)NC1=O` [compound 331, Ac-hLeu-Y-C-V-G-K-ThpA-D-V-Y-C-5FW-F-Thr-dLys(DOTA)-COOH] (Ac-[hLeu]YCVGK[Ala(4-THP)]DVYC[Trp(5-F)]FT[dK](DOTA)-OH; disulfide 3-11), the Kd under setting [1] was less than 1 nM.
For `CC(=O)N[C@@H](CCC(C)C)C(=O)N[C@@H](Cc1ccc(O)cc1)C(=O)N[C@H]1CSSC[C@@H](C(=O)N[C@@H](Cc2cn(C)c3ccccc23)C(=O)N[C@@H](Cc2ccccc2)C(=O)N[C@H](C(=O)N[C@H](CCCCNC(=O)CN2CCN(CC(=O)O)CCN(CC(=O)O)CCN(CC(=O)O)CC2)C(=O)O)C(C)(C)O)NC(=O)[C@H](Cc2ccc(O)cc2)NC(=O)[C@H](C(C)C)NC(=O)[C@H](CC(=O)O)NC(=O)[C@H](CC2CCOCC2)NC(=O)[C@H](CC2CCNCC2)NC(=O)CNC(=O)[C@H](C(C)(C)C)NC1=O` [compound 462, Ac-hLeu-Y-C-Tbg-G-PipAla-ThpA-D-V-Y-C-Trp(Me)-F-hydroxyVal-dLys(DOTA)-COOH] (Ac-[hLeu]YC[Tle]G[Ala(piperidin-4-yl)][Ala(4-THP)]DVYC[Trp(1-Me)]F[Val(3-OH)][dK](DOTA)-OH; disulfide 3-11), under setting [2], the Kd was less than 1 nM.
Still for that read-out and setting: the same measure for `CC(=O)N[C@@H](CCC(C)C)C(=O)N[C@@H](Cc1ccc(O)cc1)C(=O)N[C@H]1CSSC[C@@H](C(=O)N[C@@H](Cc2cccc3ccccc23)C(=O)N[C@@H](Cc2ccccc2)C(=O)N2CCC[C@H]2C(=O)N[C@H](CCCCNC(=O)CN2CCN(CC(=O)O)CCN(CC(=O)O)CCN(CC(=O)O)CC2)C(N)=O)NC(=O)[C@H](Cc2ccc(O)cc2)NC(=O)[C@H](C(C)C)NC(=O)[C@H](CC(=O)O)NC(=O)[C@H](Cc2ccc(C(=O)O)cc2)NC(=O)[C@H](CC2CCNCC2)NC(=O)CNC(=O)[C@H](C(C)(C)C)NC1=O` [compound 315, Ac-hLeu-Y-C-Tbg-G-PipAla-4COOHPhe-D-V-Y-C-5FW-F-Pro-dLys(DOTA)-CONH2] (Ac-[hLeu]YC[Tle]G[Ala(piperidin-4-yl)][Phe(4-COOH)]DVYC[1Nal]FP[dK](DOTA)-NH2; disulfide 3-11): 1 to 10 nM; for `CC(=O)N[C@@H](CCC(C)C)C(=O)N[C@@H](Cc1ccc(O)cc1)C(=O)N[C@H]1CSSC[C@@H](C(=O)N[C@@H](Cc2c[nH]c3ccc(F)cc23)C(=O)N[C@@H](Cc2cccc(Cl)c2)C(=O)N[C@H](C(=O)N[C@H](CCCCNC(=O)CN2CCN(CC(=O)O)CCN(CC(=O)O)CCN(CC(=O)O)CC2)C(=O)O)C(C)(C)O)NC(=O)[C@H](Cc2ccc(O)cc2)NC(=O)[C@H](C(C)C)NC(=O)[C@H](CC(=O)O)NC(=O)[C@H](CC2CCOCC2)NC(=O)[C@H](CC2CCNCC2)NC(=O)CNC(=O)[C@H](C(C)(C)C)NC1=O` [compound 430, Ac-hLeu-Y-C-Tbg-G-PipAla-ThpA-D-V-Y-C-5FW-3CIPhe-hydroxyVal-dLys(DOTA)-COOH] (Ac-[hLeu]YC[Tle]G[Ala(piperidin-4-yl)][Ala(4-THP)]DVYC[Trp(5-F)][Phe(3-Cl)][Val(3-OH)][dK](DOTA)-OH; disulfide 3-11): less than 1 nM; for `CC(=O)N[C@@H](CCC(C)C)C(=O)N[C@@H](Cc1ccc(O)cc1)C(=O)N[C@H]1CSSC[C@@H](C(=O)N[C@@H](Cc2c[nH]c3ccc(F)cc23)C(=O)N[C@H](C(=O)N[C@H](C(=O)N[C@H](C)C(=O)O)C(C)(C)O)[C@@H](C)c2ccccc2)NC(=O)[C@H](Cc2ccc(O)cc2)NC(=O)[C@H](C(C)C)NC(=O)[C@H](CC(=O)O)NC(=O)[C@H](CC2CCN(C(=O)CCOCCOCCOCCOCCNC(=O)CN3CCN(CC(=O)O)CCN(CC(=O)O)CCN(CC(=O)O)CC3)CC2)NC(=O)[C@H](CC2CCN(C)CC2)NC(=O)CNC(=O)[C@H](C(C)(C)C)NC1=O` [compound 520, Ac-hLeu-Y-C-Tbg-G-Pip(Me)Ala-Pip(PEG4-DOTA)Ala-D-V-Y-C-5FW-[(2S, 3S)beta-Me-Phe]-hydroxyVal-dAla-COOH] (Ac-[hLeu]YC[Tle]G[X17][Ala(piperidin-4-yl)]([PEG4-DOTA])DVYC[Trp(5-F)][X1][Val(3-OH)][dA]-OH; disulfide 3-11): less than 1 nM.
